The source of these data is US10364256B2 (GlaxoSmithKline Intellectual Property Development Limited, priority 2015, dated 2019).

The target in assay [1] is T1, Keap1 Kelch domain (321-609) / TAMRA-labeled 16mer NRF2 peptide (ETGE motif) (Homo sapiens, UniProt Q14145).
T1 construct: the Kelch domain (321-609) of Keap1 is used
The assay is described as follows: NRF2-Keap1 FP Assay (Keap1 Kelch fluorescence polarization). Particulars: 20 nM Keap1 (321-609), 8 nM Tamra labeled peptide. It counts as binding. In a few lines:
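Compound dilutions (3-fold) were incubated 1 hr at room temperature with 20 nM Keap1 Kelch (321-609) and 8 nM TAMRA-labeled ETGE 16mer peptide. Buffer was 50 mM Tris pH 8.0, 100 mM NaCl, 5 mM MgCl2, 1 mM DTT, 2 mM CHAPS, 0.005% BSA. Fluorescence polarization (mP) was normalized to controls and fitted with a four-parameter equation to give pIC50.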
Background: Polarisation of emitted light reports the rotation of a fluorescent probe.

Assay [2] addresses T2, full length Keap1 protein / full length NRF2 protein (Homo sapiens, UniProt Q14145).
T2 construct: full length NRF2 protein and full length Keap1 protein (Keap1 exists a dimer) are used; His
The assay can be described thus: NRF2-Keap1 TR-FRET Assay. Format: binding. As to conditions: 25 nM Keap1-FlagHis and 50 nM biotin-NRF2 added. In a few lines:
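Full-length Keap1-FlagHis preincubated with compound 2.25 h at 37 °C, then biotin-NRF2 added for 1.25 h at 4 °C, in Tris pH 8.0 with MgCl2, NaCl, BSA, DTT, CHAPS. TR-FRET 665/615 nm ratio normalised to with- and without-protein 1% DMSO controls; pIC50 from four-parameter fit.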

T2 sequence (Q14145 whole entry): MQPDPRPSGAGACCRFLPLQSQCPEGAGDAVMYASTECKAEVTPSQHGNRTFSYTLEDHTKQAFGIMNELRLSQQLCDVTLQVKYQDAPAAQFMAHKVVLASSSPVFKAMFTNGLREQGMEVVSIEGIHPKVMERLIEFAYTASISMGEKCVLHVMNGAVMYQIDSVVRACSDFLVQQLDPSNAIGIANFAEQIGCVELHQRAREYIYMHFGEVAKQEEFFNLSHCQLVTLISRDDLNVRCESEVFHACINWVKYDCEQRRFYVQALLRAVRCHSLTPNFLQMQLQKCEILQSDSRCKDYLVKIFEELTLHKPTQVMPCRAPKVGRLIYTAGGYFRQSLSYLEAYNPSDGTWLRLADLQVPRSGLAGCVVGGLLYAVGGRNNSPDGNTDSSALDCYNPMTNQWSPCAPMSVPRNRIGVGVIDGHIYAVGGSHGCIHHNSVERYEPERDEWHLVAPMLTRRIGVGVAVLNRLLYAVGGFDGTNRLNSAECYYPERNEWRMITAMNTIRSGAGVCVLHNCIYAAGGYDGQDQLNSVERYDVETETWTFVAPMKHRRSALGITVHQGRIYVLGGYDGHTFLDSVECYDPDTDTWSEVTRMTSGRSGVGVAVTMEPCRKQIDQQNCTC
T1 sequence (Q14145 321-609): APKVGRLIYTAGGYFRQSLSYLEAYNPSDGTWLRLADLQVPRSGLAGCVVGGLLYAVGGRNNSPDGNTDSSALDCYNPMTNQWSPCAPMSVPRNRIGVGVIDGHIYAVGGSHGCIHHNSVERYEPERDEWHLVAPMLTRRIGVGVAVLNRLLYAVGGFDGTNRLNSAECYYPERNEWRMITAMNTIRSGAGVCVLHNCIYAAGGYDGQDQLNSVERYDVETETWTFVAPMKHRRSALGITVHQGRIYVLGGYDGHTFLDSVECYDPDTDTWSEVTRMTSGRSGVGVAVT

For orientation: IC50 means the concentration that gives 50% inhibition. Read a low IC50 as greater potency. For the compound `CC(CC1CCCCC1)Oc1cccc(-c2cccc(-n3ncc(C(=O)O)c3C3CC3c3cn(C)nn3)c2)c1` (stereo not shown) [Example 218, 1-(3′-((1-Cyclohexylpropan-2-yl)oxy)-[1,1′-biphenyl]-3-yl)-5-(2-(1-methyl-1H-1,2,3-triazol-4-yl)cyclopropyl)-1H-pyrazole-4-carboxylic Acid], the half-maximal inhibitory concentration (IC50) in assay [1] was in the range of 10 to 100 nM; in assay [2], 100 to 1000 nM.

Turning to `CCC[C@@H]1CCCCN1C(=O)c1cncc(-c2cccc(-n3ncc(C(=O)O)c3C3CC3c3cn(C)nn3)c2)c1` (stereo partly drawn) [Example 197, 5-(2-(1-Methyl-1H-1,2,3-triazol-4-yl)cyclopropyl)-1-(3-(5-((R)-2-propylpiperidine-1-carbonyl)pyridin-3-yl)phenyl)-1H-pyrazole-4-carboxylic acid], the concentration for half-maximal inhibition (IC50) in assay [1] and in assay [2] was 10 to 100 nM throughout.

Regarding `CC[C@@H]1CN(Cc2cccc(-c3cccc(-n4ncc(C(=O)O)c4C4CC4c4cn(C)nn4)c3)c2)Cc2ccccc2O1` (stereo partly drawn) [Example 129, 1-(3′-(((R)-2-ethyl-2,3-dihydrobenzo[f][1,4]oxazepin-4(5H)-yl)methyl)-[1,1′-biphenyl]-3-yl)-5-(2-(1-methyl-1H-1,2,3-triazol-4-yl)cyclopropyl)-1H-pyrazole-4-carboxylic Acid], the concentration for half-maximal inhibition (IC50) in assay [1] and in assay [2] was 10 to 100 nM throughout.

As for `CCC[C@@H]1CCCCN1C(=O)c1cccc(-c2cccc(-n3ncc(C(=O)O)c3C3CC3(F)F)c2)c1` (stereo partly drawn) [Example 67, 5-(2,2-Difluorocyclopropyl)-1-(3′-((R)-2-propylpiperidine-1-carbonyl)-[1,1′-biphenyl]-3-yl)-1H-pyrazole-4-carboxylic Acid], the IC50 was in the range of 10 to 100 nM in assay [1] and 100 to 1000 nM in assay [2].

On to `CC(Oc1cccc(-c2cccc(-n3ncc(C(=O)O)c3[C@H]3C[C@@H]3c3cn(C)nn3)c2)c1)C1CCCCC1` (stereo partly drawn) [Example 165, 1-(3′-(1-Cyclohexylethoxy)-[1,1′-biphenyl]-3-yl)-5-((1S,2S)-2-(1-methyl-1H-1,2,3-triazol-4-yl)cyclopropyl)-1H-pyrazole-4-carboxylic acid], for which the IC50 in assay [1] and in assay [2] was 10 to 100 nM each time.

As to `Cn1cc(C2CC2c2c(C(=O)O)cnn2-c2cccc(-c3cccc(OCc4cccc(F)c4)c3)c2)nn1` (stereo not shown) [Example 224, 1-(3′-((3-Fluorobenzyl)oxy)-[1,1′-biphenyl]-3-yl)-5-(2-(1-methyl-1H-1,2,3-triazol-4-yl)cyclopropyl)-1H-pyrazole-4-carboxylic acid], the concentration for half-maximal inhibition (IC50) in assay [1] and in assay [2] was 100 to 1000 nM throughout.

In the case of `CC(Oc1cccc(-c2cccc(-n3ncc(C(=O)O)c3C3CC3c3cn(C)nn3)c2)c1)c1ccccc1` (stereo not shown) [Example 235, 5-(2-(1-Methyl-1H-1,2,3-triazol-4-yl)cyclopropyl)-1-(3′-(1-phenylethoxy)-[1,1′-biphenyl]-3-yl)-1H-pyrazole-4-carboxylic Acid], the half-inhibitory concentration (IC50) in assay [1] was in the range of 10 to 100 nM; in assay [2], 100 to 1000 nM.

For the compound `CCC[C@@H]1CCCCN1C(=O)c1cccc(-c2cccc(-n3ncc(C(=O)O)c3C3CC3c3cnn(C)c3)c2)c1F` (stereo partly drawn) [Example 214, 1-(2′-Fluoro-3′-((R)-2-propylpiperidine-1-carbonyl)-[1,1′-biphenyl]-3-yl)-5-(2-(1-methyl-1H-pyrazol-4-yl)cyclopropyl)-1H-pyrazole-4-carboxylic Acid], the IC50 in assay [1] and in assay [2] was 10 to 100 nM throughout.

With `Cn1cc(C2CC2c2c(C(=O)O)cnn2-c2cccc(-c3cccc(OC4CCCCC4)c3)c2)nn1` (stereo not shown) [Example 229], the IC50 fell in the range of 10 to 100 nM in assay [1] and 100 to 1000 nM in assay [2].

As for `CC(Oc1cccc(-c2cccc(-n3ncc(C(=O)O)c3[C@@H]3C[C@H]3c3cn(C)nn3)c2)c1)C1CCCCC1` (stereo partly drawn) [Example 163, 1-(3′-(1-Cyclohexylethoxy)-[1,1′-biphenyl]-3-yl)-5-((1R,2R)-2-(1-methyl-1H-1,2,3-triazol-4-yl)cyclopropyl)-1H-pyrazole-4-carboxylic acid], the IC50 in assay [1] fell in the range of 100 to 1000 nM; in assay [2], 1000 to 10000 nM.

For `CC(CC1CCCCC1)Oc1cccc(-c2cccc(-n3ncc(C(=O)O)c3C3CC3)c2)c1` (stereo not shown) [Example 161, 1-(3′-((1-Cyclohexylpropan-2-yl)oxy)-[1,1′-biphenyl]-3-yl)-5-cyclopropyl-1H-pyrazole-4-carboxylic Acid], the IC50 in assay [1] was in the range of 1000 to 10000 nM; in assay [2], 10000 to 100000 nM.

With `CCn1cc([C@H]2C[C@@H]2c2c(C(=O)O)cnn2-c2cccc(-c3cccc(OC(C)C4CCCCC4)c3)c2)nn1` (mixture of isomers) [Example 192, 1-(3′-(1-cyclohexylethoxy)-[1,1′-biphenyl]-3-yl)-5-((1,2-trans)-2-(1-ethyl-1H-1,2,3-triazol-4-yl)cyclopropyl)-1H-pyrazole-4-carboxylic acid], the half-maximal inhibitory concentration (IC50) in assay [1] lay within 10 to 100 nM; in assay [2], 100 to 1000 nM.

As for `CCC[C@@H]1CCCCN1C(=O)c1cccc(-c2cccc(-n3ncc(C(=O)O)c3[C@H]3C[C@@H]3c3cn(CC)nn3)c2)c1` (racemic) [Example 201, 5-((1,2-trans)-2-(1-Ethyl-1H-1,2,3-triazol-4-yl)cyclopropyl)-1-(3′-((R)-2-propylpiperidine-1-carbonyl)-[1,1′-biphenyl]-3-yl)-1H-pyrazole-4-carboxylic acid], the IC50 in assay [1] and in assay [2] was 10 to 100 nM throughout.

For `Cn1cc(C2CC2c2c(C(=O)O)cnn2-c2cccc(-c3cccc(OCC4CCCCC4)c3)c2)nn1` (stereo not shown) [Example 164, 1-(3′-(Cyclohexylmethoxy)-[1,1′-biphenyl]-3-yl)-5-(2-(1-methyl-1H-1,2,3-triazol-4-yl)cyclopropyl)-1H-pyrazole-4-carboxylic acid], the results for the half-maximal inhibitory concentration (IC50) in assay [1] and in assay [2] were 10 to 100 nM and 100 to 1000 nM, respectively.

In the case of `Cn1cc([C@H]2C[C@@H]2c2c(C(=O)O)cnn2-c2cccc(-c3cccc(OCC4CCCC(Cl)C4)c3)c2)nn1` (mixture of isomers) [Example 187, 1-(3′-((3-chlorocyclohexyl)methoxy)-[1,1′-biphenyl]-3-yl)-5-((1,2-trans)-2-(1-methyl-1H-1,2,3-triazol-4-yl)cyclopropyl)-1H-pyrazole-4-carboxylic acid], the IC50 in assay [1] and in assay [2] was 100 to 1000 nM in each case.

As for `CO[C@H]1CC[C@H](COc2cccc(-c3cccc(-n4ncc(C(=O)O)c4[C@H]4C[C@@H]4c4cn(C)nn4)c3)c2)CC1` (racemic) [Example 176, 1-(3′-(((1R,4S)-4-Methoxycyclohexyl)methoxy)-[1,1′-biphenyl]-3-yl)-5-((1,2-trans)-2-(1-methyl-1H-1,2,3-triazol-4-yl)cyclopropyl)-1H-pyrazole-4-carboxylic acid], the IC50 in assay [1] is 10 to 100 nM; in assay [2], 100 to 1000 nM.

As to `COC1CCCC(COc2cccc(-c3cccc(-n4ncc(C(=O)O)c4[C@H]4C[C@@H]4c4cn(C)nn4)c3)c2)C1` (mixture of isomers) [Example 178, 1-(3′-((3-Methoxycyclohexyl)methoxy)-[1,1′-biphenyl]-3-yl)-5-((1,2-trans)-2-(1-methyl-1H-1,2,3-triazol-4-yl)cyclopropyl)-1H-pyrazole-4-carboxylic acid], the IC50 in assay [1] was in the range of 10 to 100 nM; in assay [2], 100 to 1000 nM.

With `CC(Oc1cccc(-c2cccc(-n3ncc(C(=O)O)c3C3CC3c3cn(C)nn3)c2)c1)C1CCCCC1` (stereo not shown) [Example 219, 1-(3′-(1-Cyclohexylethoxy)-[1,1′-biphenyl]-3-yl)-5-(2-(1-methyl-1H-1,2,3-triazol-4-yl)cyclopropyl)-1H-pyrazole-4-carboxylic acid], the 50% inhibitory concentration (IC50) in assay [1] was 10 to 100 nM; in assay [2], 100 to 1000 nM.

`Cc1nn(-c2cccc(-c3cccc(OCC4CCCCC4)c3)c2)c(C2CC2c2cn(C)nn2)c1C(=O)O` (stereo not shown) [Example 188, 1-(3′-(cyclohexylmethoxy)-[1,1′-biphenyl]-3-yl)-3-methyl-5-(2-(1-methyl-1H-1,2,3-triazol-4-yl)cyclopropyl)-1H-pyrazole-4-carboxylic Acid]: the values for the half-maximal inhibitory concentration (IC50) in assay [1] and in assay [2] were 100 to 1000 nM and 1000 to 10000 nM, respectively.

Regarding `CCc1nc(-c2cccc(-c3cccc(-n4ncc(C(=O)O)c4C4CC4)c3)c2)no1` [Example 209, 5-Cyclopropyl-1-(3′-(5-ethyl-1,2,4-oxadiazol-3-yl)-[1,1′-biphenyl]-3-yl)-1H-pyrazole-4-carboxylic Acid], the 50% inhibitory concentration (IC50) in assay [1] was 1000 to 10000 nM; in assay [2], 10000 to 100000 nM.

As to `Cn1cc(C2CC2c2c(C(=O)O)cnn2-c2cccc(-c3cccc(SCC4CCCCC4)c3)c2)nn1` (stereo not shown) [Example 179, 1-(3′-((Cyclohexylmethyl)thio)-[1,1′-biphenyl]-3-yl)-5-(2-(1-methyl-1H-1,2,3-triazol-4-yl)cyclopropyl)-1H-pyrazole-4-carboxylic acid], the IC50 fell in the range of 10 to 100 nM in assay [1] and 100 to 1000 nM in assay [2].

In the case of `CCC[C@@H]1CCCCN1C(=O)c1cccc(-c2cccc(-n3nc(C)c(C(=O)O)c3C3CC3c3cn(C)nn3)c2)c1` (stereo partly drawn) [Example 202, 3-Methyl-5-(2-(1-methyl-1H-1,2,3-triazol-4-yl)cyclopropyl)-1-(3′-((R)-2-propylpiperidine-1-carbonyl)-[1,1′-biphenyl]-3-yl)-1H-pyrazole-4-carboxylic acid], the IC50 in assay [1] and in assay [2] was 10 to 100 nM in each case.

On to `Cn1cc([C@@H]2C[C@H]2c2c(C(=O)O)cnn2-c2cccc(-c3cccc(OC[C@H]4CC[C@H](C(F)(F)F)CC4)c3)c2)nn1` (racemic) [Example 146, 5-((1,2-trans)-2-(1-Methyl-1H-1,2,3-triazol-4-yl)cyclopropyl)-1-(3′-(((1r,4R)-4-(trifluoromethyl)cyclohexyl)methoxy)-[1,1′-biphenyl]-3-yl)-1H-pyrazole-4-carboxylic acid], for which the IC50 in assay [1] was in the range of 10 to 100 nM; in assay [2], 100 to 1000 nM.
